In patent US20230146795A1, “ENHANCEMENT OF ANTI-TUMOR ACTIVITY OF SHP2 INHIBITOR PYRIMIDINONE IN COMBINATION WITH NOVEL CANCER MEDICINES IN CANCERS” (TAIHO PHARMACEUTICAL CO., LTD., priority 2020, published 2023):
Values joined by “and” are separate entries in the source; they are usually repeats but may differ in a detail not shown here. Equal entries are not always repeated. Where two headings read alike, the source gives them in different places.

Columns and labels:
Format in all cases: cell-based
MKN45 = assay: Anti-proliferation assay (CellTiter-Glo 2.0), combination index, MKN45; settings: for Description: combination effect
Experimental: (§1) Cell lines were obtained from ATCC or Health Science Research Resources Bank.
(§2) Each cell lines were collected by ordinary method, then suspended in indicated medium containing 10% fetal bovine serum in table 3. The number of cells seeded per well was set to 500 cells/20 μL. […] The concentration of each anti-cancer reagents set to 8 concentrations including 0 nM. After adding the medicine to the cells, the cells were further incubated at 37° C. for 3 days under 5% CO2. Cell survival rates were calculated by adding 20 μL of CellTiter-Glo(registered trademark) 2. 0 (Promega) solution to each well, incubating the cells at room temperature for 10 minutes, and then measuring the chemiluminescence intensity of each well using a plate reader (ARVO).
(§3) A combination index (CI) value at each combined concentration of the medicines was determined.

RT4 = assay: Anti-proliferation assay (CellTiter-Glo 2.0), combination index, RT4; settings: for Description: combination effect
Experimental: as §1, §2, §3

NCI-H358 = assay: Anti-proliferation assay (CellTiter-Glo 2.0), combination index, NCI-H358
Experimental: as §1, §2, §3

[1] = Compound 1 123 + combination drug 556 nmol/L (1:4.5)
[2] = Compound 1 370 + combination drug 1670 nmol/L (1:4.5)
[3] = Compound 1 1110 + combination drug 5000 nmol/L (1:4.5)
[4] = Compound 1 4.57 nmol/L + Cisplatin 370 nmol/L, molar ratio 1:81
[5] = Compound 1 13.7 nmol/L + Cisplatin 1110 nmol/L, molar ratio 1:81
[6] = Compound 1 41.2 nmol/L + Cisplatin 1110 nmol/L, molar ratio 1:27
[7] = Compound 1 123 nmol/L + Cisplatin 3330 nmol/L, molar ratio 1:27
[8] = Compound 1 370 nmol/L + Cisplatin 10000 nmol/L, molar ratio 1:27
[9] = Compound 1 4.57 + combination drug 37.0 nmol/L (1:8.1)
[10] = Compound 1 13.7 + combination drug 111 nmol/L (1:8.1)
[11] = Compound 1 41.2 + combination drug 333 nmol/L (1:8.1)
[12] = Compound 1 123 + combination drug 1000 nmol/L (1:8.1)
[13] = Compound 1:combination drug molar ratio 1:8.1
[14] = Compound 1 370 nmol/L + FTD 123 nmol/L, molar ratio 1:0.3
[15] = Compound 1 1110 nmol/L + FTD 370 nmol/L, molar ratio 1:0.3
[16] = Compound 1 3330 nmol/L + FTD 1110 nmol/L, molar ratio 1:0.3
[17] = Compound 1 123 nmol/L + FTD 3330 nmol/L, molar ratio 1:27
[18] = Compound 1 370 nmol/L + FTD 10000 nmol/L, molar ratio 1:27
[19] = Compound 1 4.57 nmol/L + Etoposide 123 nmol/L, molar ratio 1:27
[20] = Compound 1 13.7 nmol/L + Etoposide 370 nmol/L, molar ratio 1:27
[21] = Compound 1 41.2 nmol/L + Etoposide 1110 nmol/L, molar ratio 1:27
[22] = Compound 1 41.2 nmol/L + 5-FU 3330 nmol/L, molar ratio 1:81
[23] = Compound 1 123 nmol/L + 5-FU 10000 nmol/L, molar ratio 1:81
[24] = Compound 1 1.52 nmol/L + Vorinostat 41.2 nmol/L, molar ratio 1:27
[25] = Compound 1 4.57 nmol/L + Vorinostat 123 nmol/L, molar ratio 1:27
[26] = Compound 1 13.7 nmol/L + Vorinostat 370 nmol/L, molar ratio 1:27
[27] = Compound 1 41.2 nmol/L + Vorinostat 1110 nmol/L, molar ratio 1:27
[28] = Compound 1 123 nmol/L + Vorinostat 3330 nmol/L, molar ratio 1:27
[29] = Compound 1 370 nmol/L + Vorinostat 10000 nmol/L, molar ratio 1:27
[30] = Compound 1 1110 nmol/L + Vorinostat 3330 nmol/L, molar ratio 1:3
[31] = Compound 1 3330 nmol/L + Vorinostat 10000 nmol/L, molar ratio 1:3
[32] = Compound 1 1.52 + combination drug 1.37 nmol/L (1:0.9)
[33] = Compound 1 4.57 + combination drug 4.12 nmol/L (1:0.9)
[34] = Compound 1 13.7 + combination drug 12.3 nmol/L (1:0.9)
[35] = Compound 1 41.2 + combination drug 37.0 nmol/L (1:0.9)
[36] = Compound 1 123 + combination drug 111 nmol/L (1:0.9)
[37] = Compound 1 370 + combination drug 333 nmol/L (1:0.9)
[38] = Compound 1 1110 + combination drug 1000 nmol/L (1:0.9)
[39] = Compound 1 12.3 nmol/L + Gemcitabine 1.23 nmol/L, molar ratio 1:0.1
[40] = Compound 1 37.0 nmol/L + Gemcitabine 3.70 nmol/L, molar ratio 1:0.1
[41] = Compound 1 13.7 + combination drug 123 nmol/L (1:9)
[42] = Compound 1 41.2 + combination drug 370 nmol/L (1:9)
[43] = Compound 1 123 + combination drug 1110 nmol/L (1:9)
[44] = Compound 1 370 + combination drug 3330 nmol/L (1:9)
[45] = Compound 1 1110 + combination drug 10000 nmol/L (1:9)
[46] = Compound 1 13.7 + combination drug 1.37 nmol/L (1:0.1)
[47] = Compound 1 41.2 + combination drug 4.12 nmol/L (1:0.1)
[48] = Compound 1 123 + combination drug 12.3 nmol/L (1:0.1)
[49] = Compound 1 41.2 + combination drug 3330 nmol/L (1:81)
[50] = Compound 1 123 + combination drug 10000 nmol/L (1:81)
[51] = Compound 1 37.0 + combination drug 4.12 nmol/L (1:0.1)
[52] = Compound 1 111 + combination drug 12.3 nmol/L (1:0.1)
[53] = Compound 1 333 + combination drug 37.0 nmol/L (1:0.1)
[54] = Compound 1 123 + combination drug 3330 nmol/L (1:27)
[55] = Compound 1 370 + combination drug 10000 nmol/L (1:27)

## CCOc1cc2ncc(C#N)c(Nc3ccc(OCc4ccccn4)c(Cl)c3)c2cc1NC(=O)/C=C/CN(C)C [Neratinib]
MKN45; [1]
  CI: 0.658
  Fa: 0.5592
MKN45; [2]
  CI: 0.336
  Fa: 0.8104
MKN45; [3]
  CI: 0.237
  Fa: 0.9240

## N.N.[Cl][Pt][Cl] [Cisplatin]
RT4; [4]
  CI: 0.632
  Fa: 0.0886
RT4; [5]
  CI: 0.539
  Fa: 0.2585
RT4; Compound 1 + Cisplatin, molar ratio 1:81
  Description: Synergy (0.3-0.7)
MKN45; [6]
  CI: 0.694
  Fa: 0.2057
MKN45; [7]
  CI: 0.626
  Fa: 0.5148
MKN45; [8]
  CI: 0.681
  Fa: 0.8006
MKN45; Compound 1 + Cisplatin, molar ratio 1:27
  Description: Synergy (0.3-0.7)

## C=CC(=O)Nc1cc(Nc2nccc(-c3cn(C)c4ccccc34)n2)c(OC)cc1N(C)CCN(C)C [Osimertinib]
RT4; [9]
  CI: 0.844
  Fa: 0.2395
RT4; [10]
  CI: 0.453
  Fa: 0.4891
RT4; [11]
  CI: 0.326
  Fa: 0.7067
RT4; [12]
  CI: 0.550
  Fa: 0.7777
RT4; [13]
  Description (combinatory effect by CI): Synergy (0.3-0.7)
NCI-H358; [10]
  CI: 0.333
  Fa: 0.2157
NCI-H358; [11]
  CI: 0.436
  Fa: 0.4242
NCI-H358; [12]
  CI: 0.844
  Fa: 0.5579
NCI-H358; [13]
  Description (combinatory effect by CI): Synergy (0.3-0.7)

## O=c1[nH]c(=O)n([C@H]2C[C@H](O)[C@@H](CO)O2)cc1C(F)(F)F [FTD]
RT4; [14]
  CI: 0.468
  Fa: 0.4667
RT4; [15]
  CI: 0.676
  Fa: 0.6009
RT4; [16]
  CI: 0.618
  Fa: 0.7931
RT4; Compound 1 + FTD, molar ratio 1:0.3
  Description: Synergy (0.3-0.7)
MKN45; [17]
  CI: 0.716
  Fa: 0.6654
MKN45; [18]
  CI: 0.494
  Fa: 0.8785
MKN45; Compound 1 + FTD, molar ratio 1:27
  Description: Synergy (0.3-0.7)

## COc1cc([C@@H]2c3cc4c(cc3[C@@H](O[C@@H]3O[C@@H]5CO[C@@H](C)O[C@H]5[C@H](O)[C@H]3O)[C@H]3COC(=O)[C@H]23)OCO4)cc(OC)c1O [Etoposide]
RT4; [19]
  CI: 0.460
  Fa: 0.0637
RT4; [20]
  CI: 0.373
  Fa: 0.2820
RT4; [21]
  CI: 0.432
  Fa: 0.5945
RT4; Compound 1 + Etoposide, molar ratio 1:27
  Description: Synergy (0.3-0.7)

## O=c1[nH]cc(F)c(=O)[nH]1 [Compound 5-FU]
MKN45; [22]
  CI: 0.738
  Fa: 0.4610
MKN45; [23]
  CI: 0.399
  Fa: 0.7197
MKN45; Compound 1 + 5-FU, molar ratio 1:81
  Description: Synergy (0.3-0.7)

## Cc1ccc(C(=O)Nc2ccc(CN3CCN(C)CC3)c(C(F)(F)F)c2)cc1C#Cc1cnc2cccnn12 [Ponatinib]
NCI-H358
  CI: 0.794 and 0.463 and 0.639

## O=C(CCCCCCC(=O)Nc1ccccc1)NO [Vorinostat]
RT4; [24]
  CI: 0.581
  Fa: 0.0392
RT4; [25]
  CI: 0.388
  Fa: 0.1081
RT4; [26]
  CI: 0.647
  Fa: 0.1594
RT4; [27]
  CI: 0.394
  Fa: 0.4179
RT4; [28]
  CI: 0.569
  Fa: 0.5893
RT4; [29]
  CI: 0.334
  Fa: 0.8967
RT4; Compound 1 + Vorinostat, molar ratio 1:27
  Description: Synergy (0.3-0.7)
NCI-H358; [30]
  CI: 0.642
  Fa: 0.7678
NCI-H358; [31]
  CI: 0.464
  Fa: 0.9628
NCI-H358; combination effect, Compound 1 + Vorinostat, molar ratio 1:3
  Description: Synergy (0.3-0.7)

## Cc1nc(Nc2ncc(C(=O)Nc3c(C)cccc3Cl)s2)cc(N2CCN(CCO)CC2)n1 [Dasatinib]
RT4; [32]
  CI: 0.804
  Fa: 0.1983
RT4; [33]
  CI: 0.356
  Fa: 0.3708
RT4; [34]
  CI: 0.147
  Fa: 0.5917
RT4; [35]
  CI: 0.207
  Fa: 0.6714
RT4; [36]
  CI: 0.096
  Fa: 0.8271
RT4; [37]
  CI: 0.192
  Fa: 0.8517
RT4; [38]
  CI: 0.229
  Fa: 0.8974
NCI-H358; [34]
  CI: 0.342
  Fa: 0.2486
NCI-H358; [35]
  CI: 0.208
  Fa: 0.4351
NCI-H358; [36]
  CI: 0.119
  Fa: 0.7042
NCI-H358; [37]
  CI: 0.227
  Fa: 0.7700
NCI-H358; [38]
  CI: 0.633
  Fa: 0.7795

## Nc1ccn([C@@H]2O[C@H](CO)[C@@H](O)C2(F)F)c(=O)n1 [Gemcitabine]
MKN45; [39]
  CI: 0.698
  Fa: 0.2152
MKN45; [40]
  CI: 0.878
  Fa: 0.4083
MKN45; Compound 1 + Gemcitabine, molar ratio 1:0.1
  Description: Synergy (0.3-0.7)

## CNC(=O)c1cc(Oc2ccc(NC(=O)Nc3ccc(Cl)c(C(F)(F)F)c3)c(F)c2)ccn1 [Regorafenib]
RT4; [41]
  CI: 0.650
  Fa: 0.1849
RT4; [42]
  CI: 0.582
  Fa: 0.3071
RT4; [43]
  CI: 0.359
  Fa: 0.5417
RT4; [44]
  CI: 0.696
  Fa: 0.6157
RT4; [45]
  CI: 0.979
  Fa: 0.7401
RT4; Compound 1:combination drug molar ratio 1:9
  Description (combinatory effect by CI): Synergy (0.3-0.7)

## COc1cc(OC)cc(N(CCNC(C)C)c2ccc3ncc(-c4cnn(C)c4)nc3c2)c1 [Erdafitinib]
RT4; [46]
  CI: 0.602
  Fa: 0.3659
RT4; [47]
  CI: 0.124
  Fa: 0.6028
RT4; [48]
  CI: 0.129
  Fa: 0.6985
NCI-H358; [49]
  CI: 0.768
  Fa: 0.3851
NCI-H358; [50]
  CI: 0.681
  Fa: 0.7532
NCI-H358; Compound 1:combination drug molar ratio 1:81
  Description (combinatory effect by CI): Synergy (0.3-0.7)

## CC(=O)Nc1cccc(-n2c(=O)n(C3CC3)c(=O)c3c(Nc4ccc(I)cc4F)n(C)c(=O)c(C)c32)c1 [Trametinib]
MKN45; [51]
  CI: 0.358
  Fa: 0.4047
MKN45; [52]
  CI: 0.389
  Fa: 0.6614
MKN45; [53]
  CI: 0.693
  Fa: 0.7703
MKN45; Compound 1:combination drug molar ratio 1:0.1
  Description (combinatory effect by CI): Synergy (0.3-0.7)

## COc1cc2ncnc(Nc3ccc(F)c(Cl)c3)c2cc1OCCCN1CCOCC1 [Gefitinib]
RT4; [10]
  CI: 0.205
RT4; [11]
  CI: 0.352
RT4; [12]
  CI: 0.445
NCI-H358; [10]
  CI: 0.311
NCI-H358; [11]
  CI: 0.370
NCI-H358; [12]
  CI: 0.724
NCI-H358; [13]
  Description (combinatory effect by CI): Synergy (0.3-0.7)

## CS(=O)(=O)CCNCc1ccc(-c2ccc3ncnc(Nc4ccc(OCc5cccc(F)c5)c(Cl)c4)c3c2)o1 [Lapatinib]
MKN45; [54]
  CI: 0.965
  Fa: 0.6048
MKN45; [55]
  CI: 0.497
  Fa: 0.9171
MKN45; Compound 1:combination drug molar ratio 1:27
  Description (combinatory effect by CI): Synergy (0.3-0.7)
